Measured values published in patent publication US8324457B2, “Soybean event 3560.4.3.5 and compositions and methods for the identification and/or detection thereof” (Pioneer Hi-Bred International, Inc., priority 2006, dated 2012).
Where two headings read alike, the source gives them in different places.

Legend:
[1] = test system: untransformed parental line; assay: Greenhouse glyphosate spray of the control line, visual rating; type: in vivo, Glycine max; conditions: either glyphosate application rate of the T0 test; 1 to 9 scale, 1 = dead plant
Protocol: Plants were rated using a 1 to 9 scale ten days after treatment (DAT), where 1=dead plant to 9=no observed spray response.
(§1) T0 3560.4.3.5 soybean were evaluated for glyphosate tolerance.

[2] = test system: transgenic event 3560.4.3.5 soybean; assay: Greenhouse herbicide tolerance of T0 and T1 plants, visual rating 10 days after spray; type: in vivo, Glycine max
Text: Selected events were advanced at the T1 generation for herbicide tolerance confirmation in greenhouses. Plants were sprayed at the V3 growth stage with either 1.68 kg ae ha^−1 glyphosate, 60 g ai ha^−1 thifensulfuron methyl(methyl 3-[[[[(4-methoxy-6-methyl-1,3,5-triazin-2-yl)amino]carbonyl]amino]sulfonyl]-2-thiophenecarboxylate), or a sequential […] […] […] Since the T1 events were segregating, only the non-susceptible plants were scored, and an average rating of tolerant plants within each event was calculated.
as §1
The 3560.4.3.5 event was advanced to the T1 generation in a greenhouse to confirm herbicide tolerance. The 3560.4.3.5 event had tolerance after application of 1.68 kg ae ha^−1 glyphosate, after application of 60.0 g ai ha^−1 thifensulfuron methyl, and after a sequential application of 70 g ai ha^−1 thifensulfuronmethyl at V3, […]

3560.4.3.5 soybean [3] = assay: Field glyphosate tolerance trials, T3 and T4 plants, visual rating; type: in vivo, Glycine max
Protocol: (§2) The 3560.4.3.5 soybean event was evaluatead for glyphosate tolerance. […] Plots were evaluated for crop response at 7 and 14 days after treatment (DAT), and rated using a 1-9 score. Crop response data were analyzed using the general linear model (GLM) and mixed model analysis of variance (ANOVA) procedures of SAS. (The SAS System is a registered trademark of SAS Institute, Inc., Cary, N.C., USA)
Selected T4 lines were tested for glyphosate tolerance. This experiment was a RCB design in a split plot arrangement with two replications of individual 1.2 m rows (76.2 cm row spacing). At the V3 growth stage, 6.72 kg ae ha^−1 glyphosate was applied to one block, while another was unsprayed for use as a control. The third block received a sequential application of 6.72 kg ae ha^−1 glyphosate at V3 followed by 6.72 kg ae ha^−1 glyphosate at R1. Plots were evaluated for crop response at 7 DAT and 14 DAT, and assigned a visual response score from 0% to 100% response, where 0%=no response observed to 100%=plot completely dead.
(§3) The T3 plants from the 3560.4.3.5 plants were sprayed in a glyphosate herbicide tolerance field trial. […] The untransformed control line was susceptible to any glyphosate application and was consistently rated as a 1. 3560.4.3.5 soybean T4 plants were advanced for additional glyphosate tolerance testing.

[4] = test system: untransformed control line; assay: Field glyphosate tolerance trial, control line; type: in vivo, Glycine max; conditions: any glyphosate application (3.36, 6.72 or 13.44 kg ae ha-1), 1 to 9 scale
Protocol: as §2, §3

3560.4.3.5 soybean [5] = assay: Tolerance to glyphosate tank mixes with other pesticides at V2 or R2, crop response rating; conditions: glyphosate 3.36 kg ae ha-1, chlorpyrifos 560.4, bentazon 1120.9, imazethapyr 141.3, fomesafen 263.4, tribenuron-methyl 17.5, thifensulfuron-methyl 17.5 g ai ha-1
Protocol: The first experiments were grown in an RCB design of three replications of paired 3.7 m rows (76.2 cm row spacing), blocked by replication with randomized spray treatments within each replication. […] Visual response ratings (0% to 100%) were assigned to each plot at 7 DAT, 14 DAT, and 28 DAT. Crop response data were analyzed using the GLM and mixed model ANOVA procedures of SAS.

3560.4.3.5 soybean [6] = type: in vivo, Glycine max; conditions: glyphosate 1.68 kg ae ha^−1, ALS inhibitors 5.8 + 4.4 g ai ha^−1
Protocol: The second set of tolerance experiments were designed to measure yield potential of 3560.4.3.5 soybean after application of common field use rates of glyphosate and/or ALS inhibitor herbicides. […] One experiment was grown at field A and two experiments were grown at field B and C (which were separated by planting date and physical distance of field locations.) In addition, the two fields had different environmental influence; one field experienced drought stress through the spring and early summer, the other was well irrigated throughout the growing season. Treatments were randomized within each of the replications and sprayed at the VC, V2, R2, or R5 growth stages. Treatments consisted of 1.68 kg ai ha^−1 glyphosate, 5.8 g ai ha^−1 chlorimuron ethyl+4.4 g ai ha^−1 thifensulfuron methyl, and 1.68 kg ai ha^−1 glyphosate+5.8 g ai ha^−1 chlorimuron ethyl+4.4 g ai ha^−1 thifensulfuron methyl. […] Plots were harvested and yield was calculated for each plot.
The second set of experiments conducted with event 3560.4.3.5 were designed to measure yield potential after application of different herbicides at field use rates that would be commonly utilized for soybean production. Across the glyphosate, ALS inhibitor, and glyphosate plus ALS inhibitor treatments there was minimal (10% or less) to essentially no response at 7, 14, and 28 DAT (Table 20). When yield data was collected, there were no significant yield differences detected for any of the herbicide treatments applied at different the growth stages (Table 20). In addition, the replications that received herbicide treatments were not statistically different from the unsprayed control replications for yield (Table 20). Based upon multiple year herbicide tolerance trials, it can be concluded that event 3560.4.3.5 had excellent tolerance to field use rates of glyphosate, ALS inhibitor, and glyphosate plus ALS inhibitor herbicides. In addition, yield potential was not affected when event 3560.4.3.5 was sprayed with glyphosate, ALS inhibitor, and glyphosate plus ALS inhibitor chemistries at different vegetative and reproductive growth stages.

O=C(O)CNCP(=O)(O)O [Glyphosate]
visual rating [1]: 1
average visual response rating ([2]; T0 plants, glyphosate 1.68 kg ae ha-1 + NIS + AMS, 10 days after application, greenhouse, scale 0 = dead plant to 9 = no response detected): 7.0
average visual response rating ([2]; T0 plants, glyphosate 3.36 kg ae ha-1 + NIS + AMS, 10 days after application, greenhouse, scale 0 = dead plant to 9 = no response detected): 6.5
average visual response rating, second score of sequential application ([2]; T1 tolerant plants, 70 g ai ha-1 thifensulfuron methyl at V3 followed by glyphosate 1.68 kg ae ha-1 at V6, 10 days after the V6 glyphosate application, scale to 9 = no response): 8.0
average visual response rating ([2]; T1 tolerant plants, glyphosate 1.68 kg ae ha-1 + NIS + AMS at V3, 10 days after application, scale to 9 = no response): 7.0
LSMean visual rating (3560.4.3.5 soybean [3]; T3 plants, glyphosate 3.36 kg ae ha-1, 7 DAT, 1 = completely dead plot to 9 = no response): 8.0
LSMean visual rating (3560.4.3.5 soybean [3]; T3 plants, glyphosate 6.72 kg ae ha-1, 7 DAT, 1 = completely dead plot to 9 = no response): 6.7
LSMean visual rating (3560.4.3.5 soybean [3]; T3 plants, glyphosate 13.44 kg ae ha-1, 7 DAT, 1 = completely dead plot to 9 = no response): 5.7
LSMean visual rating (3560.4.3.5 soybean [3]; T4 plants, glyphosate 6.72 kg ae ha-1 at V3, 7 DAT, 1 to 9 scale): 6.8
LSMean visual rating (3560.4.3.5 soybean [3]; T4 plants, glyphosate 6.72 kg ae ha-1 at V3, 14 DAT, 1 to 9 scale): 7.8
LSMean visual rating (3560.4.3.5 soybean [3]; T4 plants, sequential glyphosate 6.72 kg ae ha-1 at V3 then 6.72 at R1, 7 DAT after the R1 application, 1 to 9 scale): 7.8
LSMean visual rating (3560.4.3.5 soybean [3]; T4 plants, sequential glyphosate 6.72 kg ae ha-1 at V3 then 6.72 at R1, 14 DAT after the R1 application, 1 to 9 scale): 7.7
visual rating [4]: 1
LSMean crop response rating, 7 DAT Average (3560.4.3.5 soybean [5]; applied at R2): 1.7%
LSMean crop response rating, 14 DAT Average (3560.4.3.5 soybean [5]; applied at R2): 0.6%
LSMean crop response rating, 28 DAT Average (3560.4.3.5 soybean [5]; applied at R2): 0.0%
LSMean crop response rating, 14 DAT Average (3560.4.3.5 soybean [5]; applied at V2): 3.3%
LSMean crop response rating, 28 DAT Average (3560.4.3.5 soybean [5]; applied at V2): 0.6%
LSMean crop response rating, 7 DAT Average (3560.4.3.5 soybean [5]; applied at V2, + NIS + AMS, 0% = no response, 100% = plot completely dead): 3.9%
crop response rating 7 DAT (LSMean) (3560.4.3.5 soybean [6]; Application Stage R2): 2.0%
crop response rating 14 DAT (LSMean) (3560.4.3.5 soybean [6]; Application Stage R2): 0.6%
crop response rating 28 DAT (LSMean) (3560.4.3.5 soybean [6]; Application Stage R2): 0.0%
crop response rating 7 DAT (LSMean) (3560.4.3.5 soybean [6]; Application Stage R5): 0.3%
crop response rating 14 DAT (LSMean) (3560.4.3.5 soybean [6]; Application Stage R5): 0.3%
crop response rating 28 DAT (LSMean) (3560.4.3.5 soybean [6]; Application Stage R5): 0.0%
crop response rating 7 DAT (LSMean) (3560.4.3.5 soybean [6]; Application Stage V2): 5.3%
crop response rating 14 DAT (LSMean) (3560.4.3.5 soybean [6]; Application Stage V2): 2.8%
crop response rating 28 DAT (LSMean) (3560.4.3.5 soybean [6]; Application Stage V2): 0.6%
crop response rating 7 DAT (LSMean) (3560.4.3.5 soybean [6]; Application Stage VC): 1.6%
crop response rating 14 DAT (LSMean) (3560.4.3.5 soybean [6]; Application Stage VC): 0.8%
crop response rating 28 DAT (LSMean) (3560.4.3.5 soybean [6]; Application Stage VC): 0.6%
